From the NIST ThermoML archive (doi:10.1021/je060271a)
Numbers after ± are expanded uncertainties.

Conditions: 343.15 K, Liquid, Vibrating tube method

Compound `CCCCC(=O)OCC(COC(=O)CCCC)(COC(=O)CCCC)COC(=O)CCCC` [pentaerythritol tetrapentanoate] has a mass density (9911.4 kPa) of 986.2 ± 1.2 kg/m3, a mass density (9942.4 kPa) of 986.2 ± 1.2 kg/m3 and a mass density (9979.5 kPa) of 986.2 ± 1.2 kg/m3. It also gave a mass density (10011 kPa) of 986.2 ± 1.2 kg/m3, a mass density (10043 kPa) of 986.1 ± 1.2 kg/m3 and a mass density (10082 kPa) of 986.4 ± 1.2 kg/m3. The mass density (10117 kPa) was 986.1 ± 1.2 kg/m3, the mass density (10149 kPa) was 986.3 ± 1.2 kg/m3 and the mass density (10181 kPa) was 986.3 ± 1.2 kg/m3. The mass density (10213 kPa) was 986.3 ± 1.2 kg/m3, the mass density (10252 kPa) was 986.3 ± 1.2 kg/m3 and the mass density (10284 kPa) was 986.3 ± 1.2 kg/m3. For the same compound, the mass density (10318 kPa) was 986.4 ± 1.2 kg/m3, the mass density (10358 kPa) was 986.4 ± 1.2 kg/m3 and the mass density (10391 kPa) was 986.4 ± 1.2 kg/m3. For the same compound, the mass density (10425 kPa) was 986.5 ± 1.2 kg/m3, the mass density (10465 kPa) was 986.6 ± 1.2 kg/m3 and the mass density (10500 kPa) was 986.5 ± 1.2 kg/m3. For the same compound, the mass density (10535 kPa) was 986.6 ± 1.2 kg/m3, the mass density (10577 kPa) was 986.5 ± 1.2 kg/m3 and the mass density (10612 kPa) was 986.6 ± 1.2 kg/m3. For the same compound, the mass density (10647 kPa) was 986.6 ± 1.2 kg/m3, the mass density (10690 kPa) was 986.5 ± 1.2 kg/m3 and the mass density (10726 kPa) was 986.8 ± 1.2 kg/m3. It also gave a mass density (10762 kPa) of 986.7 ± 1.2 kg/m3, a mass density (10806 kPa) of 986.8 ± 1.2 kg/m3 and a mass density (10842 kPa) of 986.8 ± 1.2 kg/m3. It also gave a mass density (10879 kPa) of 986.8 ± 1.2 kg/m3, a mass density (10923 kPa) of 986.9 ± 1.2 kg/m3 and a mass density (10960 kPa) of 986.9 ± 1.2 kg/m3. For the same compound, the mass density (10999 kPa) was 986.9 ± 1.2 kg/m3, the mass density (11045 kPa) was 986.9 ± 1.2 kg/m3 and the mass density (11084 kPa) was 987 ± 1.2 kg/m3. It also gave a mass density (11122 kPa) of 987.1 ± 1.2 kg/m3, a mass density (11162 kPa) of 986.9 ± 1.2 kg/m3 and a mass density (11209 kPa) of 987 ± 1.2 kg/m3. The mass density (11248 kPa) was 987.2 ± 1.2 kg/m3, the mass density (11296 kPa) was 987.1 ± 1.2 kg/m3 and the mass density (11336 kPa) was 987.2 ± 1.2 kg/m3. It also gave a mass density (11377 kPa) of 987.2 ± 1.2 kg/m3, a mass density (11417 kPa) of 987.2 ± 1.2 kg/m3 and a mass density (11467 kPa) of 987.3 ± 1.2 kg/m3. It also gave a mass density (11508 kPa) of 987.3 ± 1.2 kg/m3, a mass density (11551 kPa) of 987.4 ± 1.2 kg/m3 and a mass density (11602 kPa) of 987.3 ± 1.2 kg/m3. The mass density (11645 kPa) was 987.3 ± 1.2 kg/m3, the mass density (11689 kPa) was 987.4 ± 1.2 kg/m3 and the mass density (11740 kPa) was 987.4 ± 1.2 kg/m3. It also gave a mass density (11784 kPa) of 987.5 ± 1.2 kg/m3, a mass density (11828 kPa) of 987.4 ± 1.2 kg/m3 and a mass density (11881 kPa) of 987.6 ± 1.2 kg/m3. It also gave a mass density (11926 kPa) of 987.6 ± 1.2 kg/m3, a mass density (11972 kPa) of 987.7 ± 1.2 kg/m3 and a mass density (12028 kPa) of 987.6 ± 1.2 kg/m3. It also gave a mass density (12076 kPa) of 987.7 ± 1.2 kg/m3, a mass density (12126 kPa) of 987.7 ± 1.2 kg/m3 and a mass density (12187 kPa) of 987.8 ± 1.2 kg/m3. The mass density (12237 kPa) was 987.9 ± 1.2 kg/m3, the mass density (12270 kPa) was 988 ± 1.2 kg/m3 and the mass density (12298 kPa) was 987.8 ± 1.2 kg/m3. For the same compound, the mass density (12322 kPa) was 987.9 ± 1.2 kg/m3, the mass density (12346 kPa) was 987.8 ± 1.2 kg/m3 and the mass density (12374 kPa) was 988 ± 1.2 kg/m3. The mass density (12398 kPa) was 987.9 ± 1.2 kg/m3, the mass density (12423 kPa) was 988 ± 1.2 kg/m3 and the mass density (12452 kPa) was 987.9 ± 1.2 kg/m3. It also gave a mass density (12476 kPa) of 988.1 ± 1.2 kg/m3, a mass density (12501 kPa) of 988.1 ± 1.2 kg/m3 and a mass density (12530 kPa) of 988 ± 1.2 kg/m3. It also gave a mass density (12555 kPa) of 988 ± 1.2 kg/m3, a mass density (12580 kPa) of 988 ± 1.2 kg/m3 and a mass density (12610 kPa) of 988 ± 1.2 kg/m3. For the same compound, the mass density (12636 kPa) was 988 ± 1.2 kg/m3, the mass density (12660 kPa) was 988.1 ± 1.2 kg/m3 and the mass density (12691 kPa) was 988.1 ± 1.2 kg/m3. It also gave a mass density (12717 kPa) of 988.2 ± 1.2 kg/m3, a mass density (12742 kPa) of 988.1 ± 1.2 kg/m3 and a mass density (12773 kPa) of 988.2 ± 1.2 kg/m3. For the same compound, the mass density (12799 kPa) was 988.2 ± 1.2 kg/m3, the mass density (12824 kPa) was 988.3 ± 1.2 kg/m3 and the mass density (12856 kPa) was 988.3 ± 1.2 kg/m3.
